Data as given in ChEMBL document CHEMBL5584309, “Discovery of Novel Mcl-1 Inhibitors with a 3-Substituted-1H-indole-1-yl Moiety Binding to the P1-P3 Pockets to Induce Apoptosis in Acute Myeloid Leukemia Cells” (J Med Chem, 2024).
Active and inactive are the calls of the source. No cut-off for these calls is given here.

Assays:
THP-1 [1] = experiment: Induction of apoptosis in human THP-1 cells assessed as viable cells at 5 uM measured after 24 hrs by Annexin V-FITC/propidium iodide double staining based assay (reference value: 93.02%); assay type: functional; conditions: read-out: Activity
[2] = Metabolic stability in rat plasma assessed as compound remaining measured immediately after addition of compound by LC-MS/MS analysis; assay type: ADME, cell-free; conditions: read-out: Stability
[3] = Metabolic stability in rat liver microsomes assessed as intrinsic clearance by LC-MS/MS analysis; assay type: ADME, Microsome; conditions: read-out: CLH
[4] = Metabolic stability in rat plasma assessed as compound remaining measured after 60 mins by LC-MS/MS analysis; assay type: ADME, cell-free; conditions: read-out: Stability
THP-1 [5] = experiment: Induction of apoptosis in human THP-1 cells assessed as necrotic cells at 10 uM measured after 24 hrs by Annexin V-FITC/propidium iodide double staining based assay (reference value: 0.13%); assay type: functional
Bcl-2-like protein 1 = Bcl-2-like protein 1 (Homo sapiens, UniProt Q07817); experiment: Binding affinity to Bcl-xL (unknown origin) pre-incubated for 30 mins followed by addition FAM-peptide further incubated for 20 mins by fluorescence polarization-based binding assay
[6] = Metabolic stability in rat liver microsomes assessed as compound remaining measured after 15 mins by LC-MS/MS analysis; assay type: ADME, Microsome; conditions: read-out: Stability
[7] = target: T1, Induced myeloid leukemia cell differentiation protein Mcl-1 (Homo sapiens, UniProt Q07820); experiment: Inhibition of Mcl-1 in human THP-1 cells assessed as dissociation of Bim from Mcl-1 at 20 uM measured after 24 hrs by Co-immunoprecipitation (Co-IP) assay; assay type: cell-based
HL-60 [8] = experiment: Induction of apoptosis in human HL-60 cells assessed as late apoptotic cells at 2.5 uM measured after 24 hrs by Annexin V-FITC/propidium iodide double staining based assay (reference value: 3.78%); assay type: functional
HL-60 [9] = experiment: Induction of apoptosis in human HL-60 cells assessed as cleaved PARP at 10 to 20 uM measured after 24 hrs by Western blot analysis; assay type: functional, cell-based; conditions: dose 10-20 µM
MOLM-13 = experiment: Antiproliferative activity against human MOLM-13 cells assessed as growth inhibition measured after 72 hrs by CCK-8 assay; assay type: functional, cell-based; conditions: MOLM-13, 72 h
U-937 = experiment: Antiproliferative activity against human U-937 cells assessed as growth inhibition measured after 72 hrs by CCK-8 assay; assay type: functional, cell-based; conditions: U-937, 72 h
THP-1 [10] = experiment: Induction of apoptosis in human THP-1 cells assessed as early apoptotic cells at 5 uM measured after 24 hrs by Annexin V-FITC/propidium iodide double staining based assay (reference value: 4.04%); assay type: functional
THP-1 [11] = experiment: Antiproliferative activity against human THP-1 cells assessed as growth inhibition measured after 72 hrs by CCK-8 assay; assay type: functional, cell-based; conditions: THP-1, 72 h
THP-1 [12] = experiment: Induction of apoptosis in human THP-1 cells assessed as necrotic cells at 5 uM measured after 24 hrs by Annexin V-FITC/propidium iodide double staining based assay (reference value: 0.13%); assay type: functional
[13] = Metabolic stability in rat liver microsomes assessed as compound remaining measured after 5 mins by LC-MS/MS analysis; assay type: ADME, Microsome
HL-60 [14] = experiment: Induction of apoptosis in human HL-60 cells assessed as necrotic cells at 10 uM measured after 24 hrs by Annexin V-FITC/propidium iodide double staining based assay (reference value: 0.18%); assay type: functional
HL-60 [15] = experiment: Induction of apoptosis in human HL-60 cells assessed as necrotic cells at 5 uM measured after 24 hrs by Annexin V-FITC/propidium iodide double staining based assay (reference value: 0.18%); assay type: functional
THP-1 [16] = experiment: Induction of apoptosis in human THP-1 cells assessed as late apoptotic cells at 5 uM measured after 24 hrs by Annexin V-FITC/propidium iodide double staining based assay (reference value: 2.81%); assay type: functional
THP-1 [17] = experiment: Induction of apoptosis in human THP-1 cells assessed as late apoptotic cells at 20 uM measured after 24 hrs by Annexin V-FITC/propidium iodide double staining based assay (reference value: 2.81%); assay type: functional
[18] = Metabolic stability in rat plasma assessed as compound remaining measured after 120 mins by LC-MS/MS analysis; assay type: ADME, cell-free; conditions: read-out: Stability
THP-1 [19] = experiment: Induction of apoptosis in human THP-1 cells assessed as late apoptotic cells at 10 uM measured after 24 hrs by Annexin V-FITC/propidium iodide double staining based assay (reference value: 2.81%); assay type: functional
[20] = Metabolic stability in rat liver microsomes assessed as compound remaining measured after 60 mins by LC-MS/MS analysis; assay type: ADME, Microsome; conditions: read-out: Stability
HL-60 [21] = experiment: Induction of apoptosis in human HL-60 cells assessed as late apoptotic cells at 10 uM measured after 24 hrs by Annexin V-FITC/propidium iodide double staining based assay (reference value: 3.78%); assay type: functional
HL-60 [22] = experiment: Induction of apoptosis in human HL-60 cells assessed as early apoptotic cells at 2.5 uM measured after 24 hrs by Annexin V-FITC/propidium iodide double staining based assay (reference value: 3.37%); assay type: functional
[23] = target: T1, Induced myeloid leukemia cell differentiation protein Mcl-1; experiment: Binding affinity to Mcl-1 (unknown origin) pre-incubated for 30 mins followed by addition FAM-peptide further incubated for 20 mins by fluorescence polarization-based binding assay; conditions: read-out: Ki
THP-1 [24] = experiment: Induction of apoptosis in human THP-1 cells assessed as early apoptotic cells at 20 uM measured after 24 hrs by Annexin V-FITC/propidium iodide double staining based assay (reference value: 4.04%); assay type: functional
THP-1 [25] = experiment: Induction of apoptosis in human THP-1 cells assessed as viable cells at 10 uM measured after 24 hrs by Annexin V-FITC/propidium iodide double staining based assay (reference value: 93.02%); assay type: functional; conditions: read-out: Activity
HL-60 [26] = experiment: Induction of apoptosis in human HL-60 cells assessed as early apoptotic cells at 5 uM measured after 24 hrs by Annexin V-FITC/propidium iodide double staining based assay (reference value: 3.37%); assay type: functional
HL-60 [27] = experiment: Induction of apoptosis in human HL-60 cells assessed as early apoptotic cells at 10 uM measured after 24 hrs by Annexin V-FITC/propidium iodide double staining based assay (reference value: 3.37%); assay type: functional
[28] = Metabolic stability in rat liver microsomes assessed as half life by LC-MS/MS analysis; assay type: ADME, Microsome
HL-60 [29] = experiment: Induction of apoptosis in human HL-60 cells assessed as viable cells at 5 uM measured after 24 hrs by Annexin V-FITC/propidium iodide double staining based assay (reference value: 92.68%); assay type: functional; conditions: read-out: Activity
HL-60 [30] = experiment: Antiproliferative activity against human HL-60 cells assessed as growth inhibition measured after 72 hrs by CCK-8 assay; assay type: functional, cell-based; conditions: HL-60, 72 h
THP-1 [31] = experiment: Induction of apoptosis in human THP-1 cells assessed as viable cells at 20 uM measured after 24 hrs by Annexin V-FITC/propidium iodide double staining based assay (reference value: 93.02%); assay type: functional; conditions: read-out: Activity
HL-60 [32] = experiment: Induction of apoptosis in human HL-60 cells assessed as necrotic cells at 2.5 uM measured after 24 hrs by Annexin V-FITC/propidium iodide double staining based assay (reference value: 0.18%); assay type: functional
THP-1 [33] = experiment: Induction of apoptosis in human THP-1 cells assessed as early apoptotic cells at 10 uM measured after 24 hrs by Annexin V-FITC/propidium iodide double staining based assay (reference value: 4.04%); assay type: functional

T1 sequence (Q07820 whole entry): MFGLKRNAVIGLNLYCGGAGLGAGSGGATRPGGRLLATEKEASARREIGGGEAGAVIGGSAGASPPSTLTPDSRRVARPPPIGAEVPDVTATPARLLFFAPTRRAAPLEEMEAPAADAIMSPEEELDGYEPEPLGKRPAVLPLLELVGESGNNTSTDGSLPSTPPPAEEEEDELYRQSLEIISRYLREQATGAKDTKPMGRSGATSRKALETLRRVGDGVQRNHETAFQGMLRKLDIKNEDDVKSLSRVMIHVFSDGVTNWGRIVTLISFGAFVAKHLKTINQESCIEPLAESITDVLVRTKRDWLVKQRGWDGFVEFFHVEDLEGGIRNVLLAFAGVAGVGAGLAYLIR
Sequence of Bcl-2-like protein 1 (Q07817 whole entry): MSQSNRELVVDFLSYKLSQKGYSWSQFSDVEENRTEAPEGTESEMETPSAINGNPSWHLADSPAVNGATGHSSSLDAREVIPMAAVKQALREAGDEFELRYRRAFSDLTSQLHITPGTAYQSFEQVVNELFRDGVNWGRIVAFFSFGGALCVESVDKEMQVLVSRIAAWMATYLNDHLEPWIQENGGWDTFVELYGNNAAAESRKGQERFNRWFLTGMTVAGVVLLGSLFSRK

Row | remaining at 0 min [2] | microsomal CLint [3] | remaining at 1 h [4] | IC50 (Bcl-2-like protein 1) | remaining at 0.25 h [6] | Activity [7] | IC50 (MOLM-13) | IC50 (U-937) | IC50 (THP-1 [11]) | remaining at 2 h [18] | SMILES | viability at 5 µM (THP-1 [1]) | Activity (THP-1 [5]) | Activity (HL-60 [8]) | Activity (HL-60 [9]) | Activity (THP-1 [10]) | Activity (THP-1 [12]) | Activity (HL-60 [14]) | Activity (HL-60 [15]) | Activity (THP-1 [16]) | Activity (THP-1 [17]) | also measured
1 | 100% | 34.9 µL/min/mg | 106% | > 100 µM | 67.6% | Active | 8.15 µM | 4.71 µM | 5.65 µM | 114% | Cc1nn(C)c(COc2ccc(N3CCN(S(=O)(=O)N(C)C)CC3)cc2)c1-c1cccc2c(CCCOc3cccc4ccccc34)c(C(=O)O)n(CCN3CCOCC3)c12 | 94% | 0.09% | 2.14% | Active | 3.36% | 0.15% | 4.86% | 1.28% | 2.54% | 24.35% | remaining at 5 min ([13]; liver microsomes, read-out: Stability): 77.1%; Activity (THP-1 [19]): 2.8%; remaining at 1 h [20]: 31.6%; Activity (HL-60 [21]): 50.33%; Activity (HL-60 [22]): 0.97%; Ki [23]: 0.012 µM; Activity (THP-1 [24]): 33.09%; viability at 10 µM (THP-1 [25]): 92.9%; Activity (HL-60 [26]): 1.28%; Activity (HL-60 [27]): 11.84%; half-life ([28]; liver microsomes): 39.7 min; viability at 5 µM (HL-60 [29]): 92.6%; IC50 (HL-60 [30]): 5.53 µM; viability at 20 µM (THP-1 [31]): 41.9%; Activity (HL-60 [32]): 0.71%; Activity (THP-1 [33]): 4.2%
2 | 100% | 30.6 µL/min/mg | 94.8% | > 100 µM | 67.4% | Active | 8.52 µM | 8.33 µM | 8.83 µM | 82.1% | Cc1cc(OCCCc2c(C(=O)O)n(CCN3CCOCC3)c3c(-c4ccccc4Cn4cc(CCN(CCN5CCOCC5)S(=O)(=O)c5ccc(F)cc5)c5ccccc54)cccc23)cc(C)c1Cl | 93.2% | 0.14% | 3.95% | Active | 4.1% | 0.15% | 0.2% | 0.57% | 2.59% | 6.3% | Stability ([13]; microsomes, 5 min): 69.3%; Activity (THP-1 [19]): 4.12%; remaining at 1 h [20]: 34.1%; Activity (HL-60 [21]): 46.1%; Activity (HL-60 [22]): 3.06%; Ki [23]: 0.024 µM; Activity (THP-1 [24]): 24.61%; viability at 10 µM (THP-1 [25]): 91.2%; Activity (HL-60 [26]): 4.06%; Activity (HL-60 [27]): 12.51%; t1/2 ([28]; microsomes): 45.3 min; viability at 5 µM (HL-60 [29]): 81.9%; IC50 (HL-60 [30]): 5.2 µM; viability at 20 µM (THP-1 [31]): 68.6%; Activity (HL-60 [32]): 0.16%; Activity (THP-1 [33]): 4.14%
